Test results taken from patent US6410041B1, “Culturing cells in presence of amphipathic weak bases and/or cations and multiple drug resistance inhibitor containing reserpine” (priority 1998, dated 2002).
≈ marks a conversion by molar mass, not a printed value. Where “and” joins values, the source holds several entries; their conditions need not be identical. Identical values can stand only once. Like-named read-outs stand apart in the source and are kept apart here.

Assays:
[1] = test system: Staphylococcus aureus RN 4222 (WT); test: MIC determination in wild type S. aureus; format: cell-based; settings: for effect of pH 9 on sensitivity / effectiveness: change of pH from 7 to 9
Description: (§1) Determination of minimal inhibitory concentrations (MICs). MICs were determined by serial two-fold dilution of antimicrobials in Mueller-Hinton broth containing chloramphenicol ([…]). […] Around 10^5 cells were inoculated in 1 ml of medium for the test. MICs were read after 18 hours of incubation at 37 C. with aeration. The 50% inhibitory concentration (IC50) was determined by growing cells in microtiter plate wells and reading the optical density after overnight growth at 650 nm.

[2] = test system: Staphylococcus aureus KLE 820 (norA−); test: microbe, parasite or virus in culture; format: cell-based; settings: for effect of addition of reserpine on sensitivity to drugs: norA mutant; for Sensitivity of norA- as compared to the wild type: in the absence of reserpine
Text: Disruption of the norA gene. Chloramphenicol acetyltransferase (CAT) gene was isolated by digesting plasmid pLI50 (10) with Sau3A (New England Biolabs). The CAT gene was cloned into the BamHI site of plasmid pSP72 (Promega) to yield plasmid PCH22. Chromosomal DNA from S. aureus RN4220 was isolated according to the protocol of Qiagen, Inc. Part of the 1050 bp norA gene lacking a 80 bp N-terminus and a 20 bp C-terminus was PCR-amplified from chromosomal DNA using primer A:5′-[…]-[…] and primer B:5′-[…]. This fragment was cloned into the EcoRI/EcoRV site of PCH22 to yield plasmid PCH23. S. aureus were transformed by PCH23 using electroporation (11). Cells were plated on trypticase soy agar (TSA) with chloramphenicol. A transformant colony was picked after 24 hours of incubation at 37 C., regrown, plated on CAM medium and a large colony was picked for further work.
as §1

[3] = test system: S. aureus; test: MICs of antimicrobials with small molecule MDR inhibitor (I) and high pH; format: cell-based, Staphylococcus aureus; settings: for Potentiation factor (pH 7/(pH 9 + I)): pH 7 vs pH 9 + I
Description: as §1

[4] = Staphylococcus aureus, RN 4222 (WT), pH 7.2, read-out: MIC
[5] = Staphylococcus aureus, pH 7.2, KLE 820 (norA−), pH 7.2
[6] = Staphylococcus aureus, pH 9, KLE 820 (norA−), pH 9
[7] = Staphylococcus aureus, pH 7, read-out: MIC
[8] = Staphylococcus aureus, pH 9, read-out: MIC
[9] = RN 4222 (WT), +R (20 μg/mL reserpine)
[10] = KLE 820 (norA−), +R (20 μg/mL reserpine)
[11] = RN 4222 (WT), −R (no reserpine)
[12] = KLE 820 (norA−), −R (no reserpine)

## COc1cc2c(cc1OC)-c1cc3ccc(OC)c(OC)c3c[n+]1CC2 [Palmatine]
[1]; RN 4222 (WT), pH 7.2
  MIC: 200 µg/mL
[1]; RN 4222 (WT), pH 9
  MIC: 12.5 µg/mL
[2]; KLE 820 (norA−), pH 7.2
  MIC: 50 µg/mL
[2]; KLE 820 (norA−), pH 9
  MIC: 0.78 µg/mL
[2]; based on comparison of MIC from wild type and norA−
  substrate of NorA: substrates of NorA
[3]; cationic plant antimicrobial alkaloids
  substrate of MDR pumps: good substrates of MDR pumps
[3]; pH 7
  MIC: 100 µg/mL
[3]; pH 7 + I (10 μg/mL)
  MIC: 1.6 µg/mL
[3]
  Potentiation factor (pH 7/(pH 9 + I)): 1,250
[3]; pH 9
  MIC: 25 µg/mL
[3]; pH 9 + I
  MIC: 0.08 µg/mL

## N=C(N)c1ccc(OCCCCCOc2ccc(C(=N)N)cc2)cc1 [Pentamidine]
[1]; Staphylococcus aureus, pH 9
  MIC: 0.312 µg/mL (≈ 0.918 µM)
[1]; [4]
  MIC: 10 µg/mL (≈ 29.4 µM)
[1]
  effect of pH 9 on sensitivity / effectiveness: significantly increased the effectiveness
[2]; [5]
  MIC: 0.312 µg/mL (≈ 0.918 µM)
[2]; [6]
  MIC: 0.0097 µg/mL (≈ 0.0285 µM)
[2]; Staphylococcus aureus, pH 9, pH 9 and norA mutation
  MIC: 0.01 µg/mL (≈ 0.0294 µM)
[2]; norA− at pH 9 vs wild type at neutral pH
  increase in sensitivity, pH 9 combined with norA mutation: 1,000 fold
[2]; norA− vs wild type
  increase in sensitivity by norA mutation: 30 fold and 33 fold
[3]; [7]
  MIC: 10 µg/mL (≈ 29.4 µM)
[3]; [8]
  MIC: 0.3 µg/mL (≈ 0.881 µM)
[3]; pH 7 + I (10 μg/mL)
  MIC: 0.33 µg/mL
[3]
  Potentiation factor (pH 7/(pH 9 + I)): 500
[3]; pH 9 + I
  MIC: 0.02 µg/mL

## COc1ccc(C[C@H](N)C(=O)N[C@H]2[C@@H](O)[C@H](n3cnc4c(N(C)C)ncnc43)O[C@@H]2CO)cc1 [Puromycin]
[1]; [4]
  MIC: 20 µg/mL (≈ 42.4 µM)
[1]; Staphylococcus aureus, RN 4222 (WT), pH 9, read-out: MIC
  MIC: 2.5 µg/mL (≈ 5.3 µM)
[2]
  Sensitivity norA− at pH 9 vs. WT at pH 7.2: 8

## COC(=O)[C@H]1[C@H]2C[C@@H]3c4[nH]c5cc(OC)ccc5c4CCN3C[C@H]2C[C@@H](OC(=O)c2cc(OC)c(OC)c(OC)c2)[C@@H]1OC [Reserpine]
[1]; wild type
  effect of addition of reserpine on sensitivity to drugs: increased the sensitivity of the wild type to drugs
[2]
  effect of addition of reserpine on sensitivity to drugs: virtually no effect
[2]; listed as Reserpin
  effect of addition of reserpine on sensitivity to drugs: failed to further increase sensitivity

## C[n+]1cc2c3c(ccc2c2ccc4cc5c(cc4c21)OCO5)OCO3 [Sanguinarine]
[3]; [7]
  MIC: 2.5 µg/mL
[3]; [8]
  MIC: 1.25 µg/mL
[3]; high pH combined with MDR inhibitor / MDR inactivation
  potentiation by high pH and MDR inhibitor: approximately 100 fold
[3]; pH 7 + I (10 μg/mL)
  MIC: 0.67 µg/mL
[3]; pH 7 vs pH 7 + I
  Ratio: 3.7
[3]
  Potentiation factor (pH 7/(pH 9 + I)): 16.6
[3]; pH 9 + I
  MIC: 0.15 µg/mL
[3]; pH 9 vs pH 9 + I
  Ratio: 8.3

## [Br-].c1ccc([P+](c2ccccc2)(c2ccccc2)c2ccccc2)cc1 [TPP, tetraphenylphosphonium bromide]
[1]; [9]
  MIC: 7.8 µg/mL
[1]; Staphylococcus aureus
  MIC: 15.6 µg/mL
[1]; Staphylococcus aureus, pH 7.2
  MIC: 15.6 µg/mL
[1]; Staphylococcus aureus, pH 9
  MIC: 0.48 µg/mL
[2]; [10]
  MIC: 1.9 µg/mL
[2]; Staphylococcus aureus, KLE 820 (norA−), −R (no reserpine)
  MIC: 1.9 µg/mL
[2]; [5]
  MIC: 1.98 µg/mL
[2]; [6]
  MIC: 0.12 µg/mL
[2]
  Sensitivity of norA- as compared to the wild type: 8
  Sensitivity norA− at pH 9 vs. WT at pH 7.2: 130

## CN(C)[C@@H]1C(O)=C(C(N)=O)C(=O)[C@@]2(O)C(O)=C3C(=O)c4c(O)cccc4[C@@](C)(O)[C@H]3C[C@@H]12 [Tetracycline]
[1]; Staphylococcus aureus, RN 4222 (WT), −R (no reserpine), read-out: MIC
  MIC: 0.097 µg/mL (≈ 0.218 µM)
[2]
  Sensitivity of norA- as compared to the wild type: 1

## CN[C@H](CC(C)C)C(=O)N[C@H]1C(=O)N[C@@H](CC(N)=O)C(=O)N[C@H]2C(=O)N[C@H]3C(=O)N[C@H](C(=O)N[C@H](C(=O)O)c4cc(O)cc(O)c4-c4cc3ccc4O)[C@H](O)c3ccc(c(Cl)c3)Oc3cc2cc(c3O[C@@H]2O[C@H](CO)[C@@H](O)[C@H](O)[C@H]2O[C@H]2C[C@](C)(N)[C@H](O)[C@H](C)O2)Oc2ccc(cc2Cl)[C@H]1O [Vancomycin]
[1]; Staphylococcus aureus
  MIC: 1.5 µg/mL (≈ 1.04 µM)
[2]; Staphylococcus aureus
  MIC: 1.5 µg/mL (≈ 1.04 µM)
[2]
  Sensitivity of norA- as compared to the wild type: 1

## Acriflavine
[1]; [9]
  MIC: 10 µg/mL
[1]; [11]
  MIC: 20 µg/mL
[2]; [10]
  MIC: 2.5 µg/mL
[2]; [12]
  MIC: 2.5 µg/mL
[2]
  Sensitivity of norA- as compared to the wild type: 8

## Benzalkonium Chloride
[1]; RN 4222 (WT), pH 7.2
  MIC: 0.67 µg/mL
[1]; RN 4222 (WT), pH 9
  MIC: 0.08 µg/mL
[1]
  effect of pH 9 on sensitivity / effectiveness: significantly increased the effectiveness
[2]; KLE 820 (norA−), pH 7.2
  MIC: 0.16 µg/mL
[2]; KLE 820 (norA−), pH 9
  MIC: 0.0104 µg/mL
[2]
  Sensitivity norA− at pH 9 vs. WT at pH 7.2: 64
[3]; pH 7
  MIC: 0.67 µg/mL
[3]; pH 7 + I (10 μg/mL)
  MIC: 0.08 µg/mL
[3]; pH 7 vs pH 7 + I
  Ratio: 8.3
[3]
  Potentiation factor (pH 7/(pH 9 + I)): 134
[3]; pH 9
  MIC: 0.16 µg/mL
[3]; pH 9 + I
  MIC: <0.005 µg/mL
[3]; pH 9 vs pH 9 + I
  Ratio: 32

## Gentamycin
[1]; [11]
  MIC: 0.62 µg/mL
[2]; [12]
  MIC: 0.62 µg/mL
[2]
  Sensitivity of norA- as compared to the wild type: 1
